The target in the test is Human TASK-1 channels (Homo sapiens (Human), UniProt O14649). In words: Determination of the activity on the TASK-1 channel in Xenopus oocytes (two-microelectrode voltage clamp). The format is cell-based. The conditions noted are these: for inhibition at 5 µM: compound concentration 5 μM; for IC50: human TASK-1 expressed in Xenopus oocytes, room temperature, read-out: IC50 value for TASK-1 inhibition. The method, boiled down:
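Current during 500 ms pulses to 40 mV from a −90 mV hold was recorded in oocytes expressing human TASK-1 for two days after cRNA injection. Compounds were added cumulatively to the ND96 bath (pH 7.4, room temperature). IC50 came from dose-response fitting of inhibition relative to pre-compound current.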

Human TASK-1 channels, sequence (O14649 whole entry): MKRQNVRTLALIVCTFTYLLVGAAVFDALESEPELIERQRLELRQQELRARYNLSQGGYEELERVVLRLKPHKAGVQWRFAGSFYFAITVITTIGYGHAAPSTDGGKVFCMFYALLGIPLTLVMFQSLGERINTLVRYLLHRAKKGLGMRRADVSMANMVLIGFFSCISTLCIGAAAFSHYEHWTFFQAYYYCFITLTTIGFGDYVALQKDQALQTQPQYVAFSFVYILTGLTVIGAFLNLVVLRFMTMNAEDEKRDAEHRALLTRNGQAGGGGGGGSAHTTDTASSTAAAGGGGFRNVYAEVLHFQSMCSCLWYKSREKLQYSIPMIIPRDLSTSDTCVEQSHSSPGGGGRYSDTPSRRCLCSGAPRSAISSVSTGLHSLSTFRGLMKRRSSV

On to `CC[C@@H](NC(=O)c1cc(C(=O)N2CCC[C@@H]2C)n2c1COCC2)c1cncc(Cl)c1` [16cj, 6-((S)-2-Methyl-pyrrolidine-1-carbonyl)-3,4-dihydro-1H-pyrrolo[2,1-c][1,4]oxazine-8-carboxylic acid [(R)-1-(5-chloro-pyridin-3-yl)-propyl]-amide], for which the inhibition (in general, the relative decrease from the control value, in per cent) at 5 µM was 69%.
Take `CC[C@@H](NC(=O)c1cc(C(=O)N2CCC[C@@H]2C)n2c1COCC2)c1cnc(C(F)(F)F)c(F)c1` [16ck, 6-((S)-2-Methyl-pyrrolidine-1-carbonyl)-3,4-dihydro-1H-pyrrolo[2,1-c][1,4]oxazine-8-carboxylic acid [(R)-1-(5-fluoro-6-trifluoromethyl-pyridin-3-yl)-propyl]-amide]: the IC50 (in general, the concentration that inhibits the measured activity by half) came out at 830 nM.
For the compound `CC[C@@H](NC(=O)c1cc(C(=O)N2CCC[C@@H]2C)n2c1COCC2)c1c(F)cc(C(F)(F)F)cc1F` [16cl, 6-((S)-2-Methyl-pyrrolidine-1-carbonyl)-3,4-dihydro-1H-pyrrolo[2,1-c][1,4]oxazine-8-carboxylic acid [(R)-1-(2,6-difluoro-4-trifluoromethyl-phenyl)-propyl]-amide], the half-maximal inhibitory concentration (IC50) was 50 nM.
Regarding `CC[C@H](NC(=O)c1cc(C(=O)N2CCC[C@@H]2C)n2c1COCC2)c1c(F)cc(C(F)(F)F)cc1F` [16cm, 6-((S)-2-Methyl-pyrrolidine-1-carbonyl)-3,4-dihydro-1H-pyrrolo[2,1-c][1,4]oxazine-8-carboxylic acid [(S)-1-(2,6-difluoro-4-trifluoromethyl-phenyl)-propyl]-amide], the inhibition at 5 µM was determined as 85%.
`CC[C@@H](NC(=O)c1cc(C(=O)N2CCC[C@@H]2C)n2c1COCC2)c1cnc(OC)c(C(F)(F)F)c1` [16cn, 6-((S)-2-Methyl-pyrrolidine-1-carbonyl)-3,4-dihydro-1H-pyrrolo[2,1-c][1,4]oxazine-8-carboxylic acid [(R)-1-(6-methoxy-5-trifluoromethyl-pyridin-3-yl)-propyl]-amide]: the half-maximal inhibitory concentration (IC50) came to 100 nM.
Still for that read-out and setting: the figure for `CC[C@@H](NC(=O)c1cc(C(=O)N2CCC[C@@H]2C)n2c1COCC2)c1cnc(Cl)c(Cl)c1` [16co, 6-((S)-2-Methyl-pyrrolidine-1-carbonyl)-3,4-dihydro-1H-pyrrolo[2,1-c][1,4]oxazine-8-carboxylic acid [(R)-1-(5,6-dichloro-pyridin-3-yl)-propyl]-amide] is 140 nM; for `CC[C@@H](NC(=O)c1cc(C(=O)N2CCC[C@@H]2C)n2c1COCC2)c1ccc(C(F)(F)F)cc1C(F)(F)F` [16cp, 6-((S)-2-Methyl-pyrrolidine-1-carbonyl)-3,4-dihydro-1H-pyrrolo[2,1-c][1,4]oxazine-8-carboxylic acid [(R)-1-(2,4-bis-trifluoromethyl-phenyl)-propyl]-amide] it is 970 nM.
Turning to `CC[C@@H](NC(=O)c1cc(C(=O)N2CCC[C@@H]2C)n2c1COCC2)c1ccc(C(F)(F)F)cc1Cl` [16cq, 6-((S)-2-Methyl-pyrrolidine-1-carbonyl)-3,4-dihydro-1H-pyrrolo[2,1-c][1,4]oxazine-8-carboxylic acid [(R)-1-(2-chloro-4-trifluoromethyl-phenyl)-propyl]-amide], the IC50 was determined as 300 nM.
Turning to `CC[C@@H](NC(=O)c1cc(C(=O)N2CCC[C@@H]2C)n2c1COCC2)c1ccc(Cl)c(C(F)(F)F)c1` [16cs, 6-((S)-Methyl-pyrrolidine-1-carbonyl)-3,4-dihydro-1H-pyrrolo[2,1-c][1,4]oxazine-8-carboxylic acid [(R)-1-(4-chloro-3-trifluoromethyl-phenyl)-propyl]-amide], the IC50 was determined as 290 nM.
The same measure, in the same setting: with `CC[C@@H](NC(=O)c1cc(C(=O)N2CCC[C@@H]2C)n2c1COCC2)c1ccc(C(F)(F)F)cc1F` [16ct, 6-((S)-2-Methyl-pyrrolidine-1-carbonyl)-3,4-dihydro-1H-pyrrolo[2,1-c][1,4]oxazine-8-carboxylic acid [(R)-1-(2-fluoro-4-trifluoromethyl-phenyl)-propyl]-amide] the figure was 210 nM; with `CC[C@@H](NC(=O)c1cc(C(=O)N2CCC[C@@H]2C)n2c1COCC2)c1cnc(C(F)(F)F)c(OC)c1` [16cw, 6-((S)-2-Methyl-pyrrolidine-1-carbonyl)-3,4-dihydro-1H-pyrrolo[2,1-c][1,4]oxazine-8-carboxylic acid [(R)-1-(5-methoxy-6-trifluoromethyl-pyridin-3-yl)-propyl]-amide], 2400 nM.
Take `CC[C@@H](NC(=O)c1cc(C(=O)N2CCCC2)n2c1COCC2)c1ccccc1` [16cx, 6-(Pyrrolidine-1-carbonyl)-3,4-dihydro-1H-pyrrolo[2,1-c][1,4]oxazine-8-carboxylic acid ((R)-1-phenyl-propyl)-amide]: the IC50 stood at 74 nM.
On to `CC[C@@H](NC(=O)c1cc(C(=O)N2CCCC2)n2c1COCC2)c1ccccc1Cl` [16cy, 6-(Pyrrolidine-1-carbonyl)-3,4-dihydro-1H-pyrrolo[2,1-c][1,4]oxazine-8-carboxylic acid [(R)-1-(2-chloro-phenyl)-propyl]-amide], for which the IC50 stood at 210 nM.
The same measure, in the same setting: the figure for `CCC(NC(=O)c1cc(C(=O)N2CCCC2)n2c1COCC2)c1ccccc1OC(F)F` (centres unmarked) [16cz, 6-(Pyrrolidine-1-carbonyl)-3,4-dihydro-1H-pyrrolo[2,1-c][1,4]oxazine-8-carboxylic acid [1-(2-difluoromethoxy-phenyl)-propyl]-amide] is 310 nM; for `CC[C@@H](NC(=O)c1cc(C(=O)N2CCC[C@@H]2C)n2c1COCC2)c1ccc(C#N)c(Cl)c1` [16d, 6-((S)-2-Methyl-pyrrolidine-1-carbonyl)-3,4-dihydro-1H-pyrrolo[2,1-c][1,4]oxazine-8-carboxylic acid [(R)-1-(3-chloro-4-cyano-phenyl)-propyl]-amide] it is 240 nM; for `CC[C@@H](NC(=O)c1cc(C(=O)N2CCCC2)n2c1COCC2)c1ccccc1C(F)(F)F` [16da, 6-(Pyrrolidine-1-carbonyl)-3,4-dihydro-1H-pyrrolo[2,1-c][1,4]oxazine-8-carboxylic acid [(R)-1-(2-trifluoromethyl-phenyl)-propyl]-amide] it is 440 nM.
For `CC[C@@H](NC(=O)c1cc(C(=O)N2CCCC2)n2c1COCC2)c1ccc(F)cc1Cl` [16db, 6-(Pyrrolidine-1-carbonyl)-3,4-dihydro-1H-pyrrolo[2,1-c][1,4]oxazine-8-carboxylic acid [(R)-1-(2-chloro-4-fluoro-phenyl)-propyl]-amide], the concentration for half-maximal inhibition (IC50) stood at 90 nM.
On the same count and under the same terms, with `CC[C@@H](NC(=O)c1cc(C(=O)N2CCCC2)n2c1COCC2)c1ccc(F)cc1F` [16de] the figure was 49 nM; with `O=C(NC(c1ccc(F)cc1)C(F)(F)F)c1cc(C(=O)N2CCCC2)n2c1COCC2` (centres unmarked) [16df, 6-(Pyrrolidine-1-carbonyl)-3,4-dihydro-1H-pyrrolo[2,1-c][1,4]oxazine-8-carboxylic acid [2,2,2-trifluoro-1-(4-fluoro-phenyl)-ethyl]-amide], 1910 nM; with `O=C(N[C@@H](c1ccc(F)cc1)C1CC1)c1cc(C(=O)N2CCCC2)n2c1COCC2` [16dg, 6-(Pyrrolidine-1-carbonyl)-3,4-dihydro-1H-pyrrolo[2,1-c][1,4]oxazine-8-carboxylic acid [(R)-cyclopropyl-(4-fluoro-phenyl)-methyl]-amide], 300 nM.
